Assay results: article PMC10877631, “Retinylidene chromophore hydrolysis from mammalian visual and non-visual opsins” (The Journal of Biological Chemistry, 2024)

Experiments:
[1] = biological target: T1, bRGR (recombinant, 1D4-tagged) (Bos taurus, UniProt P47803); experiment: UV-Vis pigment spectrum; NaBH4 trapping and LC-MS/MS of retinyl peptide; assay type: binding; conditions: covalent Schiff base at Lys256; LMNG micelles; before illumination
T1 construct: gene RGR; chromophore site given as Lys256
T1 sequence (P47803 1-291): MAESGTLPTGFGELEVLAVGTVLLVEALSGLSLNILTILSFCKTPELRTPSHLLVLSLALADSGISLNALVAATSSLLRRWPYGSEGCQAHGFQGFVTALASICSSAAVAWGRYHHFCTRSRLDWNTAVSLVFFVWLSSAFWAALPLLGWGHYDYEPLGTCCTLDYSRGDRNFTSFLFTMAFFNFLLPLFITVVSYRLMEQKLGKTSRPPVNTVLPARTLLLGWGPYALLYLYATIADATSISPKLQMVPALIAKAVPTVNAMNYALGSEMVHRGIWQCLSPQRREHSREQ

[2] = biological target: T2, native bRGR in bRPE microsomal membranes (Bos taurus, UniProt P47803); experiment: NaBH4 trapping, proteinase K or pronase digestion, LC-MS/MS; assay type: binding; conditions: covalent Schiff base at Lys256; native bovine RPE microsomes; before illumination
T2 construct: gene RGR; native, untagged, in bovine RPE microsomal membranes; chromophore site given as Lys256
T2 sequence (P47803 1-291): T1 sequence (P47803 1-291)

hRed-cone opsin = biological target: T3, hRed-cone opsin (Homo sapiens, UniProt P04000); experiment: UV-Vis pigment spectrum; NaBH4 trapping and LC-MS/MS of retinyl peptide and retinyl-Lys; assay type: binding; conditions: covalent Schiff base to helix VII Lys; dark state; LMNG
T3 construct: gene OPN1LW; recombinant, purified in LMNG; details only in supplement
T3 sequence (P04000 1-364): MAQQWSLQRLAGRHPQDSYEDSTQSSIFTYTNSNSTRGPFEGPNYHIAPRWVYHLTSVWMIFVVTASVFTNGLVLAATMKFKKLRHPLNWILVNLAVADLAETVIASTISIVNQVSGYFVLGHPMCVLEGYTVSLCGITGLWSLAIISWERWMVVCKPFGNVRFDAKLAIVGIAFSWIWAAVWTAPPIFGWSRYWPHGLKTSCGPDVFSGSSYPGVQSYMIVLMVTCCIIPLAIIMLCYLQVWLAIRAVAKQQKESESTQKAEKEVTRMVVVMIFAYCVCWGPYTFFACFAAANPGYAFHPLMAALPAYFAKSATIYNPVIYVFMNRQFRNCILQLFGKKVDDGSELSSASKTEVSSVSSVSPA

hBlue-cone opsin = biological target: T4, hBlue-cone opsin (Homo sapiens, UniProt P03999); experiment: as above; assay type: binding; conditions: covalent Schiff base to helix VII Lys; dark state; LMNG
T4 construct: gene OPN1SW; recombinant, purified in LMNG; details only in supplement
T4 sequence (P03999 1-345): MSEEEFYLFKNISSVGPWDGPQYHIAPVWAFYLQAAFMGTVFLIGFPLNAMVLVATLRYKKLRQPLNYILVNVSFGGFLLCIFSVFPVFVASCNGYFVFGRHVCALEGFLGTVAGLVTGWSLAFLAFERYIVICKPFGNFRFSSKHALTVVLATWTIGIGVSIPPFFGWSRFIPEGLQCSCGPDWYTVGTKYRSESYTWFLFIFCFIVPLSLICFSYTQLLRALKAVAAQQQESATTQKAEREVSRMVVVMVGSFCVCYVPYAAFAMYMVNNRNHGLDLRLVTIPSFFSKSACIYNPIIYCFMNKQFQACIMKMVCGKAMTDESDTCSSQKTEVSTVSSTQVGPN

[3] = biological target: T2, native bRGR in bRPE microsomal membranes; experiment: NaBH4 trapping, HPLC and LC-MS/MS after illumination; assay type: biochemical; conditions: photoisomerization at 530 nm, then Schiff-base hydrolysis; pH 7.4, 140 mM NaCl; native microsomes
bRho = biological target: T5, bRho (Bos taurus, UniProt P02699); experiment: UV-Vis pigment spectrum; NaBH4 trapping and LC-MS/MS of retinyl peptide and retinyl-Lys; assay type: binding; conditions: covalent Schiff base to helix VII Lys; dark state; LMNG
T5 construct: gene RHO; native, from bovine rod outer segments, purified in LMNG
T5 sequence (P02699 whole entry): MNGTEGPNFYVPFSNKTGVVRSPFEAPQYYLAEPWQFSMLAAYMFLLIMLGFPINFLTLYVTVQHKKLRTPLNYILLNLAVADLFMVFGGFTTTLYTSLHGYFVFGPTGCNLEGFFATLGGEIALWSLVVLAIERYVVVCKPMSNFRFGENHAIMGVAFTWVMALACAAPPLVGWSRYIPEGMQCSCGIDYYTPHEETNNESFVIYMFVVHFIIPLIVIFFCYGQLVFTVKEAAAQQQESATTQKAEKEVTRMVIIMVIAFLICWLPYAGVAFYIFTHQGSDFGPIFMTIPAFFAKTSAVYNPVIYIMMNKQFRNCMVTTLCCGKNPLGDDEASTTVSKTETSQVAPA

Row | SMILES | UV-Vis pigment spectrum; NaBH4 trapping and LC-MS/MS of retinyl peptide [1] | NaBH4 trapping, proteinase K or pronase digestion, LC-MS/MS [2] | UV-Vis pigment spectrum; NaBH4 trapping and LC-MS/MS of retinyl peptide and reti (hRed-cone opsin) | UV-Vis pigment spectrum; NaBH4 trapping and LC-MS/MS of retinyl peptide and reti (hBlue-cone opsin) | NaBH4 trapping, HPLC and LC-MS/MS after illumination [3] | UV-Vis pigment spectrum; NaBH4 trapping and LC-MS/MS of retinyl peptide and reti (bRho)
1 | CC1=C(/C=C/C(C)=C/C=C/C(C)=C/C=O)C(C)(C)CCC1 [all-trans-retinal] | recombinantly produced bRGR adducted with all-trans-retinal was immunopurified in lauryl maltose neopentyl glycol (LMNG) micelles | Microsomal bRGR reconstituted with slight excess of all-trans-retinal was analyzed by LC-MS/MS | – | – | – | –
2 | CC1=C(/C=C/C(C)=C/C=C\C(C)=C\C=O)C(C)(C)CCC1 [11-cis-retinal] | – | – | the resultant N^ε-retinyl-Lys was predominantly in the 11-cis configuration | the resultant N^ε-retinyl-Lys was predominantly in the 11-cis configuration | rapid hydrolytic production of 11-cis-retinal by bRGR in native membranes was recapitulated in this study | the resultant N^ε-retinyl-Lys was predominantly in the 11-cis configuration
